Reference: PubChem BioAssay (NCI)
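Briefly, cells in 96-well plates were exposed to five compound concentrations for 48 h, and endpoints were estimated by linear interpolation. At the TGI there is no net growth.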

Assays:
Test in all cases: growth of human tumour cells (NCI), 48 h
UACC-257 melanoma = system: UACC-257 melanoma
SF-295 CNS = system: SF-295 CNS
OVCAR-5 ovarian = system: OVCAR-5 ovarian
SNB-75 CNS = system: SNB-75 CNS
SK-MEL-28 melanoma = system: SK-MEL-28 melanoma
DU-145 prostate = system: DU-145 prostate
HCC-2998 colon = system: HCC-2998 colon
786-0 renal = system: 786-0 renal
COLO 205 colon = system: COLO 205 colon
SR leukemia = system: SR leukemia
SN12C renal = system: SN12C renal
SF-268 CNS = system: SF-268 CNS
HCT-116 colon = system: HCT-116 colon
SK-OV-3 ovarian = system: SK-OV-3 ovarian

Row | Structure (SMILES) | TGI (UACC-257 melanoma) [µM] | TGI (SF-295 CNS) [µM] | TGI (OVCAR-5 ovarian) [µM] | TGI (SNB-75 CNS) [µM] | TGI (SK-MEL-28 melanoma) [µM] | TGI (DU-145 prostate) [µM] | TGI (HCC-2998 colon) [µM] | TGI (786-0 renal) [µM] | TGI (COLO 205 colon) [µM] | TGI (SR leukemia) [µM] | TGI (SN12C renal) [µM] | TGI (SF-268 CNS) [µM] | TGI (HCT-116 colon) [µM] | TGI (SK-OV-3 ovarian) [µM]
1 | COc1ccc2c(c1)CC[C@@H]1[C@@H]2CC[C@]2(C)/C(=N/OCCN3CCCC3)CC[C@@H]12 | 3.81 | 4.63 | 10.1 | 9.49 | 2.82 | 15.5 | 3.49 | 3.37 | 3.06 | 4.49 | 15.9 | 14.4 | 3.43 | –
2 | N/C(=N\N=C\c1cc2ccccc2s1)c1cnccn1 | > 100 | > 100 | > 100 | 79.3 | > 100 | > 100 | – | > 100 | > 100 | > 100 | > 100 | > 100 | > 100 | > 100
3 | CN1C(=O)N(C)C2(CCN(CC(CC3OCCO3)c3ccc(F)cc3)CC2)C1=O (stereo not given) | > 100 | > 100 | > 100 | > 100 | > 100 | > 100 | – | > 100 | > 100 | > 100 | > 100 | > 100 | > 100 | > 100
4 | CCCNC1=C2C[C@@H](C)C[C@@H](OC)[C@@H](OC(=O)CCCN)[C@H](C)/C=C(\C)[C@@H](OC(N)=O)[C@H](OC)/C=C\C=C(/C)C(=O)NC(=CC1=O)C2=O | 12 | 36.8 | 30.5 | – | 36.1 | 26.3 | 38.1 | 53.9 | 12.1 | > 23.8 | > 48.8 | 36.7 | 28.3 | 32.4
5 | CC(=O)Nc1ccc(NC(=O)CC(=O)Nc2ccc(NC(C)=O)cc2)cc1 | > 100 | > 100 | – | – | > 100 | > 100 | 36.7 | > 100 | > 100 | > 100 | > 100 | > 100 | > 100 | 65.9
6 | CC(NC(=O)Cc1ccc(OP(=O)(OCc2ccc([N+](=O)[O-])o2)N(C)CCCCCl)cc1)c1ccc(OCC2CCCCC2)c(C(N)=O)c1 (stereo not given) | 3.27 | 4.84 | 8.78 | – | 3.33 | 14.4 | 2.98 | 10.8 | 3.1 | 4.38 | 4.26 | 6.27 | 4.52 | 11
7 | Nc1nc(Cl)cc(NCC2(CO)CCCCC2)n1 | > 100 | > 100 | > 100 | > 100 | > 100 | > 100 | – | > 100 | > 100 | > 100 | > 100 | > 100 | > 100 | > 100
8 | COC(CNC(=O)CNC(=O)c1ccc(C(F)(F)F)cc1)OC | > 100 | > 100 | > 100 | > 100 | – | > 100 | – | > 100 | > 100 | > 100 | > 100 | > 100 | > 100 | > 100
9 | Cn1c(N/N=C/c2ccccc2)nc(-c2ccc3c(c2)OCO3)c(C#N)c1=O | > 100 | > 100 | > 100 | > 100 | > 100 | > 100 | – | > 100 | > 100 | > 100 | > 100 | > 100 | > 100 | > 100
10 | CN(C(=O)[C@H](NC(=O)OCc1ccccc1)c1ccccc1)C1CCCCC1N1CCCC1 (stereo not given in full) | 63.2 | > 100 | > 100 | > 100 | > 100 | > 100 | – | > 100 | > 100 | 87.6 | > 100 | > 100 | > 100 | > 100
11 | Cc1ccsc1/C=N/NC1=NCCN1 | > 100 | > 100 | > 100 | > 100 | > 100 | > 100 | > 100 | > 100 | > 100 | – | > 100 | > 100 | > 100 | > 100
12 | O=C(N/N=C(/COc1ccccc1)N=Cc1ccncc1)c1ccncc1 | > 100 | > 100 | > 100 | > 100 | > 100 | > 100 | > 100 | > 100 | > 100 | – | > 100 | > 100 | > 100 | > 100
13 | O=[N+]([O-])c1cc(C2(N3CCCCC3)CCCCC2)sc1Br | 4.51 | 30.1 | 38.2 | – | 23.9 | 10.2 | 3.41 | 39.2 | 17.7 | 10.7 | 21.8 | 28.1 | 35.5 | 31.2
14 | CCOC(=O)Cc1c(C)c2ccc(OC(C)=O)c(OC(C)=O)c2oc1=O | 51.1 | > 100 | > 100 | 88.6 | > 100 | > 100 | – | > 100 | > 100 | 64.4 | > 100 | 96.1 | > 100 | > 100
